System: Escherichia coli (DSM 1576)
Assay: Antibacterial activity of haloperoxidase, hydrogen peroxide and a buffer compound against Escherichia coli cells (conductance measurement, Malthus)
Format: cell-based
Conditions: for Log CFU/ml (reduction in number of living bacterial cells): buffer 50 mM, 40° C., 20 minutes, approx. 10^6 CFU/ml; for bactericidal activity: carboxylic acid as buffer with haloperoxidase and hydrogen peroxide (Table 1), log CFU/ml reduction of more than 6 units corresponds to 100%
Procedure: Antimicrobial activity may be measured in terms of the number of log reductions. The term “log reduction” is defined as a logarithmic reduction of the number of living cells, e.g. 1 log reduction corresponds to a reduction in living cell number of Escherichia coli DSM1576 or Enterococcus faecalis DSM2570 from Y×10^X CFU/M (CFU: […] The number of living bacteria are to be determined as the number of E. coli or E. faecalis, respectively, which can grow on Tryptone Soya Agar plates at 30° C. The antibacterial activity of a system composed of a haloperoxidase and hydrogen peroxide were tested in a variety of buffers (including both carboxylic acids and other buffer compounds) and pH against Escherichia coli (DSM 1576). The E. coli cells were grown in Brain Heart Infusion broth (BHI) until stationary growth phase (30° C., 20 hours). […] Subsequently the solution was incubated in a 96-well MicroWell plate (Nunc A/S, Denmark) at 40° C. in 20 minutes. […] The detection times measured by the Malthus instrument were converted to CFU/ml by a calibration curve.

[1] = pH 5, rCvP 0.5 mg/L, H2O2 0.5 mM
[2] = pH 7, rCvP 0.1 mg/L, H2O2 0.25 mM
[3] = pH 6, rCvP 0.5 mg/L, H2O2 0.5 mM

## CC(=O)O [Acetic acid]
[1]
  Log CFU/ml (reduction in number of living bacterial cells): 6.0 Log CFU/ml
  bactericidal activity: 100%

## O=S(=O)(O)CCN1CCN(CCO)CC1 [HEPES]
[2]
  Log CFU/ml (reduction in number of living bacterial cells): 0.7 Log CFU/ml
pH 8, rCvP 1 mg/L, H2O2 1 mM
  Log CFU/ml (reduction in number of living bacterial cells): 0.6 Log CFU/ml

## O=S(=O)(O)CCN1CCOCC1 [2-(N-morpholino) ethanesulfonic acid]
[3]
  Log CFU/ml (reduction in number of living bacterial cells): 0.6 Log CFU/ml

## Tris(hydroxymethyl)amino-methane [Tris(hydroxymethyl)amino-methane (TRIS)]
[2]
  Log CFU/ml (reduction in number of living bacterial cells): 0.3 Log CFU/ml
pH 8, rCvP 1 mg/L, H2O2 1 mM
  Log CFU/ml (reduction in number of living bacterial cells): 0.5 Log CFU/ml

## CC(C)(CC(=O)O)CC(=O)O [Dimethylglutaric acid (DMG), Dimethylglutaric acid]
[3]
  Log CFU/ml (reduction in number of living bacterial cells): 6.7 Log CFU/ml
[2]
  Log CFU/ml (reduction in number of living bacterial cells): 7.3 Log CFU/ml
  bactericidal activity: 100%

## O=C(O)CC(O)(CC(=O)O)C(=O)O [Citric acid]
[1]
  Log CFU/ml (reduction in number of living bacterial cells): 6.4 Log CFU/ml
  bactericidal activity: 100%

## O=P([O-])(O)O.[K+] [KH2PO4]
[2]
  Log CFU/ml (reduction in number of living bacterial cells): 0.3 Log CFU/ml
pH 8, rCvP 1 mg/L, H2O2 1 mM
  Log CFU/ml (reduction in number of living bacterial cells): 0.4 Log CFU/ml

— patent US20020137655A1, “Use of haloperoxidase, peroxide and carboxylic acid” (Novozymes A/S, priority 2000, published 2002)
